PubChem BioAssay (NCI)
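Following 48 hours of exposure in 96-well plates, responses at five concentrations were used to interpolate endpoints linearly. GI50 is the concentration that inhibits growth by half. At the TGI there is no net growth.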

Key:
Assay in all cases: inhibition of tumour cell growth, NCI panel, 48 h
SK-OV-3 ovarian = tested on: SK-OV-3 ovarian
UACC-257 melanoma = tested on: UACC-257 melanoma
SK-MEL-5 melanoma = tested on: SK-MEL-5 melanoma
SNB-19 CNS = tested on: SNB-19 CNS
COLO 205 colon = tested on: COLO 205 colon
OVCAR-5 ovarian = tested on: OVCAR-5 ovarian
KM12 colon = tested on: KM12 colon
HCC-2998 colon = tested on: HCC-2998 colon
MDA-MB-435 = tested on: MDA-MB-435
T-47D breast = tested on: T-47D breast

| SMILES | TGI (SK-OV-3 ovarian) | TGI (UACC-257 melanoma) | TGI (SK-MEL-5 melanoma) | TGI (SNB-19 CNS) | TGI (COLO 205 colon) | TGI (OVCAR-5 ovarian) | GI50 (SK-OV-3 ovarian) | GI50 (UACC-257 melanoma) | GI50 (SK-MEL-5 melanoma) | GI50 (KM12 colon) | TGI (KM12 colon) | GI50 (HCC-2998 colon) | TGI (HCC-2998 colon) | GI50 (MDA-MB-435) | TGI (MDA-MB-435) | GI50 (SNB-19 CNS) | GI50 (T-47D breast) | TGI (T-47D breast) | GI50 (OVCAR-5 ovarian) | GI50 (COLO 205 colon) |
| --- | --- | --- | --- | --- | --- | --- | --- | --- | --- | --- | --- | --- | --- | --- | --- | --- | --- | --- | --- | --- |
| O=C(CC1(O)C(=O)Nc2ccccc21)c1ccc(O)cc1O (centres undefined) | > 100 µM | > 100 µM | > 100 µM | > 100 µM | > 100 µM | > 100 µM | – | – | – | – | – | – | – | – | – | – | – | – | – | – |
| COc1cc(-c2ccc(-[n+]3nc(-c4ccc([N+](=O)[O-])cc4)nn3-c3ccc([N+](=O)[O-])cc3)c(OC)c2)ccc1-[n+]1nc(-c2ccc([N+](=O)[O-])cc2)nn1-c1ccc([N+](=O)[O-])cc1 | 66.3 µM | 12 µM | 23.6 µM | 69.3 µM | – | 45.5 µM | 9.08 µM | 2.83 µM | 4.28 µM | 4.04 µM | 21.4 µM | 9.21 µM | 29.3 µM | 2.51 µM | 6.62 µM | 11.9 µM | 0.3 µM | 5.75 µM | 12.4 µM | – |
| N#C/C(=C\c1ccc(Cl)cc1)n1nnc2cc(F)c(F)cc21 | – | 5.58 µM | 3.04 µM | 3.78 µM | 4.83 µM | 3.81 µM | – | 2.14 µM | 1.62 µM | 1.95 µM | 4.29 µM | 1.74 µM | 3.29 µM | 1.76 µM | 4.42 µM | 1.82 µM | 1.31 µM | 4.72 µM | 1.9 µM | 2.18 µM |
| COC1=CC(C)C2C[C@H]3O[C@H](O)C[C@H]4C(C)C(=O)C(O)C([C@@]2(C)C1=O)[C@@]34C (some centres undefined) | > 100 µM | > 100 µM | > 100 µM | – | > 100 µM | – | – | – | – | – | > 100 µM | – | > 100 µM | – | – | – | – | – | – | – |
| COc1ccc(C(=O)O)c2c(=O)c3ccccc3[nH]c12 | > 100 µM | > 100 µM | – | > 100 µM | > 100 µM | > 100 µM | – | – | – | – | > 100 µM | – | > 100 µM | – | – | – | – | – | – | – |
| N#Cc1c(N)nc(N2CCOCC2)c(C#N)c1-c1cccc(O)c1 | > 100 µM | > 100 µM | > 100 µM | > 100 µM | > 100 µM | > 100 µM | 70.9 µM | > 100 µM | > 100 µM | – | – | 68.5 µM | > 100 µM | > 100 µM | > 100 µM | > 100 µM | 42.7 µM | > 100 µM | > 100 µM | 69.3 µM |
| CCOC(=O)CCc1c(C)c2ccc(O)cc2oc1=O | – | > 100 µM | > 100 µM | > 100 µM | > 100 µM | > 100 µM | – | – | – | – | – | – | > 100 µM | – | > 100 µM | – | – | > 100 µM | – | – |
| CO/C=C/c1cc2c(cc1C(OC)OC)OCO2 | 79.3 µM | > 100 µM | 42.8 µM | > 100 µM | – | > 100 µM | – | – | – | – | > 100 µM | – | > 100 µM | – | – | – | – | – | – | – |
| CC1CC(C)C(=O)C(C(=O)CC2CC(=O)NC2=O)C1 (centres undefined) | > 100 µM | > 100 µM | – | > 100 µM | > 100 µM | > 100 µM | – | – | – | – | > 100 µM | – | > 100 µM | – | – | – | – | – | – | – |
| CC(=O)[CH-]C(C)=O.CC(=O)[CH-]C(C)=O.CC(=O)[CH-]C(C)=O.[Cl-].[Hf+4] | > 100 µM | > 100 µM | – | > 100 µM | > 100 µM | > 100 µM | > 100 µM | > 100 µM | – | > 100 µM | > 100 µM | > 100 µM | > 100 µM | – | – | > 100 µM | – | – | > 100 µM | > 100 µM |
| CC(=O)O[C@H]1C(=O)[C@@]2(C)[C@H]([C@H](OC(=O)c3ccccc3)[C@]3(O)C[C@H](OC(=O)[C@H](OC(=O)CCC(=O)OC4CCC(S/N=C(N)/N=C(\N)N(C)C)CC4)[C@@H](NC(=O)c4ccccc4)c4ccccc4)C(C)=C1C3(C)C)[C@]1(OC(C)=O)CO[C@@H]1C[C@@H]2O (some centres undefined) | > 50 µM | > 50 µM | 10.5 µM | > 50 µM | 0.0406 µM | > 50 µM | 0.0144 µM | 0.0846 µM | 0.0176 µM | 0.0106 µM | > 50 µM | 0.0147 µM | 0.727 µM | – | – | 0.0205 µM | 0.0139 µM | > 50 µM | 0.0272 µM | 0.00952 µM |
| CC1(C)OC(=O)C=C(O)O1.CC1(C)OC(=O)C=C(O)O1.CCO.Oc1ccc2c(c1)CCC2.[Ti] | > 100 µM | > 100 µM | > 100 µM | > 100 µM | > 100 µM | > 100 µM | > 100 µM | > 100 µM | > 100 µM | > 100 µM | > 100 µM | – | – | – | – | 56.3 µM | – | – | > 100 µM | > 100 µM |
| Cc1ccc(NC(=O)/C(=N/NC(=O)CC#N)C2C(=O)N(c3ccccc3)N=C2N)cc1C (centres undefined) | > 100 µM | > 100 µM | > 100 µM | > 100 µM | > 100 µM | > 100 µM | – | – | – | – | > 100 µM | – | > 100 µM | – | – | – | – | – | – | – |
| O=C(Nc1ccc(N=Nc2ccccc2)cc1)Sc1ccccc1C(=O)O | – | > 100 µM | – | > 100 µM | > 100 µM | > 100 µM | – | – | – | – | > 100 µM | – | > 100 µM | – | – | – | – | – | – | – |
| C/C=C/C/C=C/CCC(=O)C1OC1C(N)=O (centres undefined) | 81.8 µM | 31.1 µM | 28.3 µM | 32.1 µM | 33.5 µM | 32.8 µM | – | – | – | – | 29.5 µM | – | 31.1 µM | – | 28.3 µM | – | – | – | – | – |
| C[C@]12CC[C@@H]3c4ccc(OCC(=O)O)cc4CC[C@H]3[C@@H]1CCC2=O | > 100 µM | > 100 µM | > 100 µM | > 100 µM | > 100 µM | > 100 µM | – | – | – | – | > 100 µM | – | – | – | > 100 µM | – | – | > 100 µM | – | – |
| O=C1NC(=O)[C@H]2C3C=CC([C@@H]12)[C@@H]1C(=O)NC(=O)[C@H]31 | – | > 100 µM | > 100 µM | > 100 µM | > 100 µM | > 100 µM | – | – | – | – | – | – | > 100 µM | – | > 100 µM | – | – | > 100 µM | – | – |
| COc1cc2c(cc1OCCCCCN1CCN(c3cc(=O)oc4c(C)c(OC)ccc34)CC1)N=C[C@@H]1CCCN1C2=O | 12.8 µM | – | – | 8.82 µM | 0.0849 µM | 0.851 µM | 0.0435 µM | – | – | < 0.0169 µM | 0.0965 µM | 0.0111 µM | 0.0372 µM | < 0.0112 µM | 0.0262 µM | < 0.0143 µM | < 0.0174 µM | – | < 0.0123 µM | < 0.01 µM |
| NC1=NN(c2ccccc2)C(=O)C1C(=O)C(=O)Nc1cccc(C(F)(F)F)c1 (centres undefined) | > 100 µM | > 100 µM | > 100 µM | > 100 µM | > 100 µM | > 100 µM | – | – | – | – | > 100 µM | – | > 100 µM | – | – | – | – | – | – | – |
